Assay results published in paper PMC10235067, “Increased renal elimination of endogenous and synthetic pyrimidine nucleosides in concentrative nucleoside transporter 1 deficient mice” (Nature Communications, 2023).
“And” between values parts separate entries of the source, which are not always exact repeats. Identical values can stand only once.

Assay: Gemcitabine plasma pharmacokinetics in Slc28a1+/+ and Slc28a1-/- mice
Conditions: for C0: C0, dFdU in plasma; for MRT last: MRTlast
[1] = dFdU in plasma, KO mice, iv gemcitabine 50mg/kg, per mouse
[2] = dFdU in plasma, WT mice, iv gemcitabine 50mg/kg, per mouse
[3] = female, Slc28a1-/- (CNT1 knockout; background strain not stated), mouse, plasma, intravenous, 50 mg/kg, Cp (dFdU), KO mice, single iv gemcitabine 50mg/kg
[4] = female, mouse, plasma, intravenous, 50 mg/kg, Cp (dFdU), WT mice, single iv gemcitabine 50mg/kg

- Tmax [1]: 5 min and 10 min and 15 min
- Tlast [2]: 15 min and 30 min
- Tmax [2]: 10 min and 5 min and 15 min
- concentration at 120 min [3]: 0 µg/mL
- concentration at 240 min [3]: 0 µg/mL
- concentration at 5 min (female, mouse, plasma, intravenous, 50 mg/kg, Cp (dFdU), KO mice, single iv gemcitabine 50mg/kg, 5 min): 0.4 µg/mL
- concentration at 60 min (female, mouse, plasma, intravenous, 50 mg/kg, Cp (dFdU), KO mice, single iv gemcitabine 50mg/kg): 0 µg/mL
- concentration at 60 min [4]: 0 µg/mL
- concentration at 120 min [4]: 0 µg/mL
- concentration at 240 min [4]: 0 µg/mL
- AUC(0-inf) (female, mouse, plasma, iv, 50 mg/kg, AUCINF_obs, dFdU in plasma, KO mice, iv gemcitabine 50mg/kg, per mouse): 0.121 µg·h/mL
- AUC(0-inf) (female, mouse, plasma, iv, 50 mg/kg, AUCINF_pred, dFdU in plasma, KO mice, iv gemcitabine 50mg/kg, per mouse): 0.121 µg·h/mL
- C0 (female, mouse, plasma, iv, 50 mg/kg, KO mice, iv gemcitabine 50mg/kg, per mouse): 0.408 µg/mL
- C0 (female, mouse, plasma, iv, 50 mg/kg, WT mice, iv gemcitabine 50mg/kg, per mouse): 0.445 µg/mL
- Cmax (female, mouse, plasma, iv, 50 mg/kg, Cmax, Slc28a1+/+ mice, plasma, single i.v. dFdC 50 mg/kg): 0.453 ± 0.00735 µg/mL
- Cmax (female, mouse, plasma, iv, 50 mg/kg, Cmax, Slc28a1-/- mice, single i.v. dFdC 50 mg/kg): 0.386 ± 0.00842 µg/mL
- k el (female, mouse, plasma, iv, 50 mg/kg, Lambda_z, dFdU in plasma, KO mice, iv gemcitabine 50mg/kg, per mouse): 0.00206 s⁻¹
- MRT inf (female, mouse, plasma, iv, 50 mg/kg, MRTINF_obs, dFdU in plasma, KO mice, iv gemcitabine 50mg/kg, per mouse): 10.1 min
- MRT inf (female, mouse, plasma, iv, 50 mg/kg, MRTINF_pred, dFdU in plasma, KO mice, iv gemcitabine 50mg/kg, per mouse): 10.1 min
- MRT last (female, mouse, plasma, iv, 50 mg/kg, dFdU in plasma, KO mice, iv gemcitabine 50mg/kg, per mouse): 9.07 min
- MRT last (female, mouse, plasma, iv, 50 mg/kg, dFdU in plasma, WT mice, iv gemcitabine 50mg/kg, per mouse): 8.1 min
- Tmax (female, mouse, plasma, iv, 50 mg/kg, Tmax, Slc28a1+/+ mice, plasma, single i.v. dFdC 50 mg/kg): 240 min
- Tmax (female, mouse, plasma, iv, 50 mg/kg, Tmax, Slc28a1-/- mice, single i.v. dFdC 50 mg/kg): 240 min
SMILES: O=c1ccn([C@@H]2O[C@H](CO)[C@@H](O)C2(F)F)c(=O)[nH]1 [dFdU, 2′,2′-difluorodeoxyuridine]
- Vss_obs [1]: 69.4601 L/kg and 61.663 L/kg and 82.9724 L/kg
- Vss_pred [1]: 69.3609 L/kg and 61.8825 L/kg and 83.3534 L/kg
- Vz_obs [1]: 55.6606 L/kg and 50.262 L/kg and 61.5323 L/kg
- Vz_pred [1]: 55.7054 L/kg and 50.0305 L/kg and 61.2807 L/kg
- AUCINF_D_obs [2]: 809.741 kg·ng·min/mL/mg and 249.152 kg·ng·min/mL/mg and 172.396 kg·ng·min/mL/mg and 377.161 kg·ng·min/mL/mg
- AUCINF_D_pred [2]: 816.693 kg·ng·min/mL/mg and 238.149 kg·ng·min/mL/mg and 171.456 kg·ng·min/mL/mg and 377.935 kg·ng·min/mL/mg
- AUCINF_obs [2]: 40487.1 ng·min/mL and 12457.6 ng·min/mL and 8619.8 ng·min/mL and 18858.1 ng·min/mL
- AUCINF_pred [2]: 40834.7 ng·min/mL and 11907.4 ng·min/mL and 8572.82 ng·min/mL and 18896.7 ng·min/mL
- AUC_%Back_Ext_obs [2]: 5.421% and 15.2704% and 19.786% and 11.9089%
- AUC_%Back_Ext_pred [2]: 5.375% and 15.976% and 19.8944% and 11.8845%
- AUC_%Extrap_obs [2]: 84.3044% and 33.9106% and 11.4334% and 37.4722%
- AUC_%Extrap_pred [2]: 84.438% and 30.857% and 10.948% and 37.6002%
- AUCall [2]: 4075.38 ng·min/mL and 9255.63 ng·min/mL and 10796.8 ng·min/mL and 8847.25 ng·min/mL and 15444.5 ng·min/mL and 12682.2 ng·min/mL
- AUClast [2]: 2654.78 ng·min/mL and 6354.7 ng·min/mL and 8233.16 ng·min/mL and 7634.27 ng·min/mL and 11791.5 ng·min/mL and 11904.6 ng·min/mL
- AUClast_D [2]: 53.0957 kg·ng·min/mL/mg and 127.094 kg·ng·min/mL/mg and 164.663 kg·ng·min/mL/mg and 152.685 kg·ng·min/mL/mg and 235.831 kg·ng·min/mL/mg and 238.093 kg·ng·min/mL/mg
- AUMCINF_obs [2]: 3570423 min*min*ng/mL and 327900 min*min*ng/mL and 123838 min*min*ng/mL and 570014 min*min*ng/mL
- AUMCINF_pred [2]: 3606313 min*min*ng/mL and 297795 min*min*ng/mL and 121856 min*min*ng/mL and 572297 min*min*ng/mL
- AUMC_%Extrap_obs [2]: 98.6995% and 70.4945% and 33.5736% and 73.1636%
- AUMC_%Extrap_pred [2]: 98.7124% and 67.5118% and 32.4931% and 73.2706%
- AUMClast [2]: 21508.2 min*min*ng/mL and 46433.5 min*min*ng/mL and 96748.4 min*min*ng/mL and 82261.4 min*min*ng/mL and 152972 min*min*ng/mL and 128827 min*min*ng/mL
- Cl_pred [2]: 73.467 L/h/kg and 251.944 L/h/kg and 349.943 L/h/kg and 158.758 L/h/kg
- Clast [2]: 0.189413 µg/mL and 0.386792 µg/mL and 0.17091 µg/mL and 0.0808657 µg/mL and 0.243534 µg/mL and 0.0518385 µg/mL
- Clast_pred [2]: 0.390731 µg/mL and 0.148651 µg/mL and 0.0770106 µg/mL and 0.244867 µg/mL
- Cmax [2]: 0.214033 µg/mL and 0.433203 µg/mL and 0.507425 µg/mL and 0.460142 µg/mL and 0.479909 µg/mL and 0.627306 µg/mL
- Cmax_D [2]: 4.281 kg·ng/mL/mg and 8.664 kg·ng/mL/mg and 10.1485 kg·ng/mL/mg and 9.203 kg·ng/mL/mg and 9.598 kg·ng/mL/mg and 12.5461 kg·ng/mL/mg
- HL_Lambda_z [2]: 61.1667 min and 17.1328 min and 8.4476 min and 20.1128 min
- Lambda_z [2]: 0.01133 min⁻¹ and 0.04046 min⁻¹ and 0.08205 min⁻¹ and 0.03446 min⁻¹
- MRTINF_obs [2]: 88.1868 min and 26.3212 min and 14.3667 min and 30.2266 min
- MRTINF_pred [2]: 88.315 min and 25.0092 min and 14.2143 min and 30.2855 min
- MRTlast [2]: 7.307 min and 11.7511 min and 10.7753 min and 12.973 min and 10.8216 min
- Vss_obs [2]: 108.907 L/kg and 105.643 L/kg and 83.3357 L/kg and 80.1423 L/kg
- Vss_pred [2]: 108.137 L/kg and 105.015 L/kg and 82.9031 L/kg and 80.1342 L/kg
- Vz_obs [2]: 108.979 L/kg and 99.2063 L/kg and 70.6936 L/kg and 76.9343 L/kg
- Vz_pred [2]: 108.051 L/kg and 103.79 L/kg and 71.0811 L/kg and 76.7768 L/kg
- Cp (dFdU) (plasma, KO mice, single iv gemcitabine 50mg/kg, 5 min): 0.397109 µg/mL and 0.353736 µg/mL and 0.215606 µg/mL and 0.287027 µg/mL and 0.238121 µg/mL
